# Results as given in US9540702B2, “Stabilization of enzymes with stable coenzymes” (Roche Diabetes Care, Inc., priority 2009, dated 2017).
# Tests used:
# [1] = molecular target: glucose dehydrogenase/NAD system (Bacillus subtilis, UniProt P12310); test: Photometric glucose determination with test elements containing GlucDH, NAD, mediator and 2,18-phosphomolybdic acid; settings: glucose in the region of 800 mg/dl; test elements stored 11 weeks at room temperature
# Method: Various test systems which each contained glucose dehydrogenase, NAD, a mediator and, where appropriate, an optical indicator, were measured photometrically and electrochemically in order to determine glucose.
# For photometric measurements four test elements which had each been stored for 11 weeks at room temperature and contained 2,18-phosphomolybdic acid in addition to glucose dehydrogenase, NAD and a mediator, were initially investigated at various glucose concentrations.
# The kinetics of the conversion of glucose using the system glucose dehydrogenase, NAD, 1-(3-carboxypropoxy)-5-ethylphenazinium-trifluoromethane sulfonate and 2,18-phosphomolybdic acid at glucose concentrations in the range from 0 to 800 mg/dl is shown in FIG. 14.
# [2] = molecular target: T1, alcohol dehydrogenase (ADH) (Saccharomyces cerevisiae, UniProt P00330); test: Stability of alcohol dehydrogenase with coenzyme in a liquid phase at 35° C.; assay type: biochemical, yeast; settings: 65 hours at 35° C., 5 mg/ml ADH, 50 mg/ml coenzyme, pH 9.0
# T1 sequence (P00330 1-348): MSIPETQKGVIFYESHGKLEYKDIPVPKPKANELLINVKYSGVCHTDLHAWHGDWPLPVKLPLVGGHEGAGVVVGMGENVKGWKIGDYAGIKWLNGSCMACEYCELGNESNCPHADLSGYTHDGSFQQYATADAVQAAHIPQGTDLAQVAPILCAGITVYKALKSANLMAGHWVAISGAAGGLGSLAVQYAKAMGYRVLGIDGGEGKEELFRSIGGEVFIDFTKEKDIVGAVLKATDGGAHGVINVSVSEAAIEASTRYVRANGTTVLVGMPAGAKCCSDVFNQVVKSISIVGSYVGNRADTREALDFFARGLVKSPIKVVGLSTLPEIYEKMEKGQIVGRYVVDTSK
# Method: FIG. 12 is a graphical illustration of the stability of alcohol dehydrogenase from yeast in the presence of NAD or cNAD in a liquid phase at 35° C. for a period of 65 hours with test conditions of 5 mg/ml ADH; 50 mg/ml NAD or cNAD; buffer: 75 mM Na4P2O7; glycine, pH 9.0; temperature 35° C.
# (§1) cNAD or NAD was added to a detection solution containing alcohol dehydrogenase. These mixtures were stored at 2-8° C. and at 35° C. Subsequently, the stability of alcohol dehydrogenase (ADH) was checked at regular intervals and the residual activity of the enzyme was determined.
# The residual activity of alcohol dehydrogenase in the presence of the native coenzyme NAD is at about 6% after 65 hours at 35° C., whereas the residual activity of the enzyme in the presence of the artificial coenzyme cNAD is still at about 60%.
# [3] = molecular target: Glucose dehydrogenase mutant2 (Bacillus subtilis, UniProt P12310, A229V/A236S/E170K/Q252L); test: Differential scanning calorimetry (DSC) of coenzyme binding; settings: Tris buffer, pH 8.0; versus absence of NAD (79.1° C.)
# [4] = molecular target: glucose dehydrogenase (GlucDH) (Bacillus subtilis, UniProt P12310); test: Stability of glucose dehydrogenase with coenzyme in a liquid phase at 50° C.; assay type: biochemical; settings: 10 mg/ml GlucDH, 12 mg/ml coenzyme, pH 8.5
# Method: FIGS. 9A and 9B are graphical illustrations of the stability of glucose dehydrogenase in the presence of NAD or cNAD in a liquid phase at 50° C. for a period of 4 days (FIG. 9A) or 14 days (FIG. 9B) with test conditions of 10 mg/ml GlucDH; 12 mg/ml NAD or cNAD; buffer: 0.1 M Tris, 1.2 M NaCl, pH 8.5; temperature 50° C.
# After 95 hours at 50° C. the residual activity of glucose dehydrogenase in the presence of the native coenzyme NAD is […], whereas the residual activity of GlucDH in the presence of the artificial coenzyme cNAD is 75% (FIG. 9A). After 336 hours storage at 50° C. the residual activity of the enzyme stabilized with NAD is now only about 1%; a residual activity of still about 70% is observed for the enzyme stored in the presence of cNAD. The corresponding SDS gels also show a change in the GlucDH bands in the presence of the native coenzyme NAD: new bands are seen at higher molar masses and there is a shift in the 30 kDa band.
# [5] = molecular target: T1, alcohol dehydrogenase (ADH); test: Storage of alcohol dehydrogenase detection solution with NAD or cNAD (Tables 1 and 2); assay type: biochemical, yeast; settings: 16 mmol/l coenzyme
# Method: as §1
# If alcohol dehydrogenase is stored together with native NAD or with cNAD for several months at 2-8° C. in a refrigerator, then one observes in the case of […] a considerable decrease in enzyme activity over the entire storage period. Whereas the difference after 2 weeks storage is still slight, there is an approximately 20% higher residual activity of alcohol dehydrogenase after 12 months storage in the presence of 16 mM cNAD compared to a corresponding solution containing 16 mM NAD as the coenzyme.
# Accordingly, the residual activity of alcohol dehydrogenase can be increased somewhat in samples that have been stored for 2 weeks at 2-8° C. by increasing the concentration of cNAD.
# Sequence of glucose dehydrogenase/NAD system (P12310 whole entry): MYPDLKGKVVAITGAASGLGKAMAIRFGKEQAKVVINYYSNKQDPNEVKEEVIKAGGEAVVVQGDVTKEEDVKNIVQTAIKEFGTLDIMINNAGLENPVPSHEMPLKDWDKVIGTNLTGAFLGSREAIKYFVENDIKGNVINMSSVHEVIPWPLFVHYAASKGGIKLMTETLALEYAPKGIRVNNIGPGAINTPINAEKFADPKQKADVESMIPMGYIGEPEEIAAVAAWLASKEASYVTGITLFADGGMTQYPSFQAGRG
# Sequence of glucose dehydrogenase (GlucDH) (P12310 whole entry): as above
# Sequence of Glucose dehydrogenase mutant2 (P12310 whole entry E170K/A229V/A236S/Q252L): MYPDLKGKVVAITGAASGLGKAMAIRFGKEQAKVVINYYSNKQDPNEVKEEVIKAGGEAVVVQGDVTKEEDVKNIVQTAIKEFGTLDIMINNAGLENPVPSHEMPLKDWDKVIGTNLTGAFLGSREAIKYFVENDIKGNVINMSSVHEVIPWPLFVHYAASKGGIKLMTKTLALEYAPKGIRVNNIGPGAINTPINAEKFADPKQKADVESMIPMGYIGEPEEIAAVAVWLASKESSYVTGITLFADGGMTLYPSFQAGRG
Structure (SMILES),reflectance of the measured sample [1],residual activity of alcohol dehydrogenase [2],TM shift on binding of ligand [3],residual activity of glucose dehydrogenase ([4]; 95 hours at 50° C.),residual activity of glucose dehydrogenase ([4]; 336 hours at 50° C.),ADH activity after 2 weeks at 2-8° C. ([5]; 2 weeks at 2-8° C.),ADH activity after 3 months at 2-8° C. ([5]; 3 months at 2-8° C.),ADH activity after 7.5 months at 2-8° C. ([5]; 7.5 months at 2-8° C.),ADH activity after 10 months at 2-8° C. ([5]; 10 months at 2-8° C.),ADH activity after 12 months at 2-8° C. ([5]; 12 months at 2-8° C.),ADH activity % of weighed amount (initial value) ([5]; initial value)
CC[n+]1c2ccccc2nc2c(OCCCC(=O)O)cccc21.O=S(=O)([O-])C(F)(F)F [1-(3-carboxy-propoxy)-5-ethylphenazinium-trifluoromethane sulfonate],about 20%,–,–,–,–,–,–,–,–,–,–
"NC(=O)c1ccc[n+]([C@@H]2O[C@H](COP(=O)([O-])OP(=O)(O)OC[C@H]3O[C@@H](n4cnc5c(N)ncnc54)[C@H](O)[C@@H]3O)[C@@H](O)[C@H]2O)c1 [NAD, nicotinamide adenine dinucleotide, reference compound]",–,about 6%,more than 1.5 °C,> 5%,about 1%,96.9 % of initial value,92.1 % of initial value,80.2 % of initial value,70.3 % of initial value,60.5 % of initial value,85.2 % of weighed amount
Cl.O=Nc1ccc(N(CO)CO)cc1 [[(4-nitroso-phenyl)imino]dimethanol hydrochloride],about 20%,–,–,–,–,–,–,–,–,–,–
